This is an account of results in US20120022116A1, “COMPOSITIONS AND METHODS FOR THE TREATMENT OF PATHOLOGICAL CONDITION(S) RELATED TO GPR35 AND/OR GPR35-HERG COMPLEX” (priority 2010, published 2012).

Series [1] concerns HEK293 cells expressing only Gqo5 or GPR35. Kind of series: Ca2+ mobilization assay in HEK293 cells expressing only Gqo5 or only GPR35. The series is classed as cell-based, human. As to conditions: engineered HEK293, 10 μM. Here is the method:
Ca^2+ flux assay with transient transfected cells were carried out in 96-well plates (Corning Inc, Cat#3664). HEK293 cells (25000 cells/well) were seeded on day 1. Cells were transfected with either myc-GPR35 or HA-Gqo5 or co-transfected with both plasmids (myc-GPR35/HA-Gqo5 DNA ratio 2:1) using Lipofectamine LTX (Invitrogen) on day 2. Ca^2+ flux assay was performed 24 hours after transfection.
Ca^2+ flux assays with transient transfected cells were carried out in 96-well plates (Corning Inc, Cat#3664). HEK293 cells (25000 cells/well) were seeded on day 1. Cells were transfected with either myc-GPR35 or HA-Gqo5 or co-transfected with both plasmids (myc-GPR35/HA-Gqo5 DNA ratio 2:1) using Lipofectamine LTX (Invitrogen) on day 2. Ca^2+ flux assays were performed 24 hours after transfection.
A general note: A change in cytosolic calcium serves as a functional read-out for many receptors and channels.

Series [2] addresses T1, hERG channel (Homo sapiens, UniProt Q12809). Put plainly: Automated patch clamp recording of hERG tail current (IonWorks). As to conditions: hERG tail current ratio post/pre-compound, 50 uM. A general note: Patch clamp records ionic current or voltage across a cell membrane.
For series [3], the system named is GPR35. Put plainly: DMR desensitization / antagonism mode against GPR35 agonist-induced DMR in HT29 cells. As to conditions: for Desenstization to GPR35 agonist: HT29 cells pretreated with compound, then GPR35 agonist. The series is classed as cell-based, human.
Series [4] has as its system HT29 cells. Kind of series: cAMP-Glo assay in HT29 cells. It is filed as cell-based, human. As to conditions: for increase in intracellular cAMP concentration: HT29 cells, Gs readout; for suppression in intracellular cAMP concentration: forskolin co-stimulated HT29 cells, Gi readout. The method, then: Cells were plated in 384well plates (BD Bioscience, Cat#354660) (10000 cells/well for HEK293, 20000 cells/well for HT29). Cells were cultured in complete growth medium overnight. The next day cAMP-Glo assay was performed according to manufacturer's instruction (Promega, Cat#V1502). Cells were incubated with 20 μM compounds in induction buffer with or without 0.5 μM or 5 μM forskolin for 30 minutes before adding lysis buffer. Luminescence was measured using Tecan SafireII reader.
Cells were plated in 384 well plates (BD Bioscience, Cat# 354660) (10000 cells/well for HEK293, 20000 cells/well for HT29). Cells were cultured in complete growth medium overnight. The next day cAMP-Glo assay was performed according to manufacturer's instruction (Promega, Cat#V 1502). Cells were incubated with 20 μM compounds in induction buffer with or without 0.5 μM or 5 μM forskolin for 30 minutes before adding lysis buffer. Luminescence was measured using Tecan SafireII reader.
Cells were plated in 384 well plates (BD Bioscience, Cat# 354660) (10000 cells/well for HEK293, 20000 cells/well for HT29). The cells were cultured in complete growth medium overnight. The next day a cAMP-Glo assay was performed according to manufacturer's instruction (Promega, Cat#V1502). The cells were incubated with 20 μM compounds in induction buffer with or without 0.5 μM or 5 μM forskolin for 30 minutes before adding lysis buffer. Luminescence was measured using Tecan SafireII reader.

The subject of series [5] is GPR35. Kind of series: GPR35 receptor internalization, immunofluorescence confocal imaging in HT29 cells. The series is classed as cell-based, human. As to conditions: anti-GPR35 antibody. The method, then: HT29 cells were plated on a 8-well chamber slide (10,000 cells/well) and incubated at 37° C. for 24 hrs. Next day, cells were fixed with 4% formaldehyde in 1×PBS for 15 min, followed by blocking and permeabilization in a buffer that contains 4% goat serum, 0.1% BSA, 0.1% Triton X100 in 1×PBS for 2 hrs. After 5 min wash with PBS, fixed cells were incubated with primary antibody anti-GPR35 (Abcam) (1:300) in 3% BSA/PBS buffer for 24 hrs, followed by incubation with secondary antibody Alexa Fluor® 488 goat anti-rabbit IgG (H+L) (Invitrogen) (1:250) in 3% BSA/PBS for 1 hr at room temperature. Cells were finally washed once with PBS and sealed with 1.5 mm thick glass cover-slip. Dried slides were stored at 4° C. until imaging. Confocal imaging was performed with Zeiss confocal microscope Axiovert 40. […] Confocal images were analyzed using MacBiophotonics Image J software (http://www.macbiophotonics.ca/downloads.htm).
HT29 cells were plated on a 8-well chamber slide (10,000 cells/well) and incubated at 37° C. for 24 hrs. […] Confocal images were analyzed using MacBiophotonics Image J software (http://www.macbiophotonics.ca/downloads.htm).
HT29 cells were plated on a 8-well chamber slide (10,000 cells/well) and incubated at 37° C. for 24 hrs. […] Confocal images were analyzed using MacBiophotonics Image J software (http://www.macbiophotonics.ca/downloads.htm). […]

Series [6] has as its system HT29 cells. Kind of series: Fluo-4 Ca2+ mobilization assay in native HT29 cells. It is filed as cell-based, human. As to conditions: Fluo-4 assay, 10 micromolar. The method, then: Fluo-4 Direct™ Calcium Assay Kit was purchased from Invitrogen (Starter pack, Cat. no. F10471). HEK293 cells (15000 cells/well) and HT29 cells (30000 cells/well) were seeded in polyD-lysine coated 384well plates (Corning Inc., Cat#3845), culture overnight at 37° C. The next day, Ca^2+ flux assay was performed following manufacturer's instruction and fluorescence ratio (340 nm/380 nm) was measured on FDSS (Functional Drug Screening System, Hamamatsu Photonics, Japan). Compounds were prepared as 10× stock (final concentration 10 μM) in the Ca^2+ assay buffer.
Fluo-4 Direct™ Calcium Assay Kit was purchased from Invitrogen (Starter pack, Cat. no. F10471). HEK293 cells (15000 cells/well) and HT29 cells (30000 cells/well) were seeded in polyD-lysine coated 384 well plates (Corning Inc., Cat#3845) and cultured overnight at 37° C. The next day, the Ca^2+ flux assay was performed following manufacturer's instruction and fluorescence ratio (340 nm/380 nm) was measured on FDSS (Functional Drug Screening System, Hamamatsu Photonics, Japan). Compounds were prepared as 10× stock (final concentration 10 μM) in the Ca^2+ assay buffer.

In series [7] the target is T2, GPR35 (Homo sapiens, UniProt Q9HC97).
T2 construct: myc; expressed in transfected cells; host or cells: HEK293, transient co-transfection (Lipofectamine LTX)
Put plainly: Ca2+ mobilization assay (Fluo-4) in HEK-GPR35-Gqo5 cells. It is filed as cell-based. As to conditions: for Ca2+ moblization (HEK-GPR35-Gqo5): HEK293 cells co-expressing GPR35 and Gqo5, Fluo-4, compounds 10 μM; for Ca2+ mobilization signal in cells co-expressing GPR35 and Gqo5: engineered HEK293, 10 μM.

Series [8] concerns the target T1, hERG channel. More on the design: expressed in transfected cells. As to conditions: 10 μM; cited from earlier work.
Another series concerns HEK-293 cells. Put plainly: DMR assay in parental HEK-293 cells. It is filed as cell-based, human. As to conditions: zaprinast 10 μM.
Series [9] deals with hERG channel. Put plainly: Cross-desensitization DMR assay against hERG activator mallotoxin-induced DMR in HT29 cells. On the technique in general: The hERG channel carries a current that helps repolarise heart muscle cells.
Series [10] concerns hERG channel.
For series [11], the system named is HEK-hERG cells.
Series [12] deals with HEK-hERG cells. Put plainly: DMR assay in HEK-hERG cells. As to conditions: zaprinast 10 μM.
Setting [13] is: listed as 6-bromo-3-methylthieno[3,2-b]thiophene-2-carboxylic acid.

“Also recorded” adds a separate entry of the source. Where two headings read alike, the source gives them in different places.

T1 sequence (Q12809 whole entry): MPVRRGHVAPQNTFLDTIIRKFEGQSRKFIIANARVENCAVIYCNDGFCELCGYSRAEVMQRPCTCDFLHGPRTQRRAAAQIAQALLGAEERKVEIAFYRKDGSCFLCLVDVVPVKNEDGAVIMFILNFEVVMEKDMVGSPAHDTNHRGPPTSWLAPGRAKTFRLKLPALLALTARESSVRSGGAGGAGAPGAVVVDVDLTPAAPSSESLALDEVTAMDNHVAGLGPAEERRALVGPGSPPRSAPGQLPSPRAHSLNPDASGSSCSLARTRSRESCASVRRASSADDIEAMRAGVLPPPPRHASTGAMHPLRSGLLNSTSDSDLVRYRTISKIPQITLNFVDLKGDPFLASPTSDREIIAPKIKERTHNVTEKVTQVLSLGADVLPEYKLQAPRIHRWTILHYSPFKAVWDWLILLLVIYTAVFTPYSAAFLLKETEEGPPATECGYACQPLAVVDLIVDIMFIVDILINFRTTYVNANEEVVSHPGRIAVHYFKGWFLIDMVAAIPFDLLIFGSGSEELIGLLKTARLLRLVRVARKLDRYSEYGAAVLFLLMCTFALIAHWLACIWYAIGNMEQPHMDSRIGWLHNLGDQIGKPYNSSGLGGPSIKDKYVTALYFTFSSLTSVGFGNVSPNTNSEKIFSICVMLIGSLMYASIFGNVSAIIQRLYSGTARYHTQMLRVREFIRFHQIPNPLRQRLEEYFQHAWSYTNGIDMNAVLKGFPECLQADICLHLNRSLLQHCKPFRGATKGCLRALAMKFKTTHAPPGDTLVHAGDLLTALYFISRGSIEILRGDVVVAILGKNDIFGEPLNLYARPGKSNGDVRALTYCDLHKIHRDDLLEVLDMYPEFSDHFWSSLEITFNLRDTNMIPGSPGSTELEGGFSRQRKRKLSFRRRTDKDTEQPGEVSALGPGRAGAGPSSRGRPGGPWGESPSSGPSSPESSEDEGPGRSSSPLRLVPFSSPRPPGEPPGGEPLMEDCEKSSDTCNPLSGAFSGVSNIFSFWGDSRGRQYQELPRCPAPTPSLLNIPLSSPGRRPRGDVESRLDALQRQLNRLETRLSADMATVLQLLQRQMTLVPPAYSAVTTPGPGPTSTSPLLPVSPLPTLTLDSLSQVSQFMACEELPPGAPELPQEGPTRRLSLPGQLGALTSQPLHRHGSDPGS
T2 sequence (Q9HC97 whole entry): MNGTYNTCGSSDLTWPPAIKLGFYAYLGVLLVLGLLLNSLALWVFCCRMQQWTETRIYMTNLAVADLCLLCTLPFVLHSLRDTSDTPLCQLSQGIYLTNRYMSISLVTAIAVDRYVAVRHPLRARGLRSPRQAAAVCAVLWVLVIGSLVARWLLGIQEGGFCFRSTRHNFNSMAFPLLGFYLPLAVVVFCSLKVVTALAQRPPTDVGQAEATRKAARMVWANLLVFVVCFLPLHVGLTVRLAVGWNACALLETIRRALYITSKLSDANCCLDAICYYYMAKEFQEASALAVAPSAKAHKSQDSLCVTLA

`Cc1c(C(=O)O)sc2c(Br)csc12` [Compound 13, 3-methyl-6-bromo-thieno[3,2-b]thiophene-2-carboxylic acid]: in series [1], the “Ca2+ mobilization signal in cells expressing only Gqo5 or GPR35” value was “failed to cause any obvious Ca^2+ mobilization signal”. Further, on hERG channel [2], the “Electrophysiology (HEK-hERG)” value is “activator”. For the same compound, the “Desenstization to GPR35 agonist” value in the series with GPR35 [3] is “desenstized”. Also, the “desensitization / attenuation of the GPR35 agonist (zaprinast, NPPB) DMR signal in HT29 cells” value (“desensitization / attenuation” for short) with GPR35 [3] (pretreatment, zaprinast 400 nM) is on record as “caused desensitization”. Also, in the series with HT29 cells [4], the “increase in intracellular cAMP concentration” value is “neither zaprinast nor 6-bromo-3-methylthieno[3,2-b]thiophene-2-carboxylic acid was able to cause increase in intracellular cAMP concentration” and the “suppression in intracellular cAMP concentration” value is “neither zaprinast nor 6-bromo-3-methylthieno[3,2-b]thiophene-2-carboxylic acid cause any suppression in intracellular cAMP concentration”. In the series on GPR35 [5] (setting [13]), the GPR35 receptor internalization entry is “underwent internalization; also recorded: caused receptor internalization”. In the series with HT29 cells [6] (setting [13]), the “Ca2+ mobilization signal in HT29 cells” value is listed as “unable to cause any detectable Ca^2+ signal”. In addition, on GPR35 [7], the “Ca2+ moblization (HEK-GPR35-Gqo5)” value was “inactive”; the “Ca2+ mobilization signal in cells co-expressing GPR35 and Gqo5” value was “triggered quite obvious Ca^2+ signal”.
As to `CC(=O)c1c(O)c(C)c(O)c(Cc2c(O)c3c(c(C(=O)/C=C/c4ccccc4)c2O)OC(C)(C)C=C3)c1O` [Mallotoxin, mallotoxin], the “Electrophysiology (HEK-hERG)” value at hERG channel [2] is listed as “activator”. In the series on GPR35 [3], the “desensitization / attenuation” value is on record as “dose-dependently, partially inhibited; also recorded: partially attenuate; also recorded: dose-dependently desensitized” and the “Desenstization to GPR35 agonist” value is on record as “desenstized”. Also, on hERG channel [8], the “shift of the half maximal activation voltage (V1/2) to the hyperpolarizing direction” value is given as “more than 25 mV”. The “DMR signal in HEK-293 cells” value in the series on HEK-293 cells is reported as “no detectable DMR signal (i.e., net-zero DMR)”. The “Desenstization to hERG activator” value in the series on hERG channel [9] (HT29 cells pretreated with compound, then hERG activator mallotoxin) is “desenstized”.
For the compound `Cc1cccc(Nc2ccccc2C(=O)O)c1C` [Mefenamic Acid], the “Desenstization to GPR35 agonist” value in the series with GPR35 [3] is “desenstized”. For the same compound, in the series on hERG channel [10], the “Desenstization to hERG activator” value is reported as “partially desenstized”. The “Ca2+ moblization (HEK-GPR35-Gqo5)” value on GPR35 [7] was “inactive”.
Turning to `CCCOc1ccccc1-c1nc2nn[nH]c2c(=O)[nH]1` [zaprinast], the “Ca2+ mobilization signal in cells expressing only Gqo5 or GPR35” value in series [1] was “failed to cause any obvious Ca^2+ mobilization signal; also recorded: not in either parental cell, or the engineered cells expressing either GPR35 or Gqo5”. Also, the “impact on the mallotoxin DMR signal in HEK-hERG cells” value in the series with HEK-hERG cells [11] is on record as “little or no impact”. In addition, at hERG channel [2], the “Electrophysiology (HEK-hERG)” value is “inactive”. Also, the “Desenstization to GPR35 agonist” value in the series with GPR35 [3] was “desenstized”. In the series on GPR35 [3] (pretreatment, zaprinast 400 nM), the “desensitization / attenuation” value is reported as “dose-dependently caused desensitization”. Further, in the series on HT29 cells [4], the “increase in intracellular cAMP concentration” value is “neither zaprinast nor 6-bromo-3-methylthieno[3,2-b]thiophene-2-carboxylic acid was able to cause increase in intracellular cAMP concentration” and the “suppression in intracellular cAMP concentration” value is “neither zaprinast nor 6-bromo-3-methylthieno[3,2-b]thiophene-2-carboxylic acid cause any suppression in intracellular cAMP concentration”. For the same compound, in the series with GPR35 [5], the GPR35 receptor internalization entry is given as “underwent internalization; also recorded: caused receptor internalization; also recorded: significant receptor internalization”. For the same compound, the “DMR signal in HEK-hERG cells” value with HEK-hERG cells [12] is “net-zero DMR signal”. Moreover, the “DMR signal in HEK-293 cells” value with HEK-293 cells is reported as “net-zero DMR signal”. Further, in the series with HT29 cells [6], the “Ca2+ mobilization signal in HT29 cells” value was “failed to cause any significant Ca^2+ mobilization; also recorded: unable to cause any detectable Ca^2+ signal; also recorded: did not result in any detectable Ca^2+ mobilization signal”. Also, the “Ca2+ mobilization signal in HT29 cells” value with HT29 cells [6] (listed as Zaprinast) is recorded as “did not result in any detectable Ca^2+ mobilization signal”. In addition, in the series with hERG channel [9] (pretreatment, mallotoxin 16 micromolar), the “attenuation of the mallotoxin DMR signal in HT29 cells” value is “dose-dependently, partially attenuated; also recorded: partially attenuate; also recorded: dose-dependently desensitized”. Also, at GPR35 [7], the “Ca2+ moblization (HEK-GPR35-Gqo5)” value is “active”; the “Ca2+ mobilization signal in cells co-expressing GPR35 and Gqo5” value is on record as “triggered quite obvious Ca^2+ signal; also recorded: triggered a detectable Ca^2+ mobilization signal; also recorded: active”.
